Measurements as given in article PMC8264504, “Identification of Koumine as a Translocator Protein 18 kDa Positive Allosteric Modulator for the Treatment of Inflammatory and Neuropathic Pain” (Frontiers in Pharmacology, 2021).

Tests used:
TSPO = biological target: TSPO; set-up: method as in Awad and Gavish, 1987; Verma et al., 1987; details: radioligand binding experiment results from literatures, ref Awad and Gavish, 1987, Verma et al.; cited from earlier work
[1] = system: naïve and CCI sham-operated rats; experiment: MWT in naïve and CCI sham-operated rats; assay type: in vivo, rat; details: for MWT: given alone
Excerpt: The rat CCI model of neuropathic pain was produced according to the method described by Bennett and Xie ([Bennett and Xie, 1988]). Adult male SD rats were anesthetized by isoflurane delivered by using the anesthetic machine. The right common sciatic nerve was isolated at the mid-thigh level and loosely ligated using four chromic gut (4–0) ties separated by intervals of 1 mm. For sham surgeries, the right sciatic nerve was exposed using the same procedure, but the nerve was not ligated. On the 9th day after surgery, Ro5-4864 or vehicle (5% DMSO) was administered i. p. 50 min before the measurement of mechanical allodynia, and koumine was administered s. c. 60 min before the measurement of mechanical allodynia. To determine whether koumine potentiated the analgesic effects of Ro5-4864, koumine (0.28 mg/kg, s. c.) or vehicle was injected 10 min before Ro5-4864 (0.0625–1.0 mg/kg, i. p.) injection on day 9 after CCI surgery, and the MWT was determined 50 min after the last injection. […] Mechanical allodynia was measured using the procedures described below. Only rats with mechanical withdrawal threshold scores (calculated by CCI ipsilateral paw mechanical withdrawal threshold/contralateral paw mechanical withdrawal threshold) on day 8 after CCI surgery >0.75 were used in the study.
Mechanical allodynia was measured using a commercially available electronic von Frey apparatus (Model 2,390; IITC Life Science Inc., Woodland Hills, CA) as described by Mitrirattanakul ([Mitrirattanakul et al., 2006]) with minor modifications. […] Stimulation was applied to the center of the hind paw in an upward motion of the von Frey filament until foot withdrawal occurred, and the withdrawal threshold was automatically recorded. […] The procedure was repeated three times at approximately 5 min intervals for each hind paw, and the MWT was calculated as the mean of the three latencies.
Figure S5 Modulation of the in vivo efficacy of Ro5-4864 by koumine in the naïve and CCI sham rat model. […] Koumine (0.28 mg/kg) was injected s.c. 9 days after CCI sham surgery, the MWT was determined 60 min after koumine injection. […]

[2] = biological target: T1, TSPO from rat cerebral cortex (Rattus norvegicus, UniProt P16257); experiment: 3H-PK11195 dissociation kinetics; assay type: binding
T1 construct: from tissue; host or cells: rat (SD) cerebral cortex, crude mitochondrial/membrane pellet
Experimental: (§1) Briefly, male SD rats (240 ± 10 g) were killed by decapitation, and the cerebral cortices were dissected. The tissues were homogenized in 10 volumes (ml/g) of 50 mM Tris HCl buffer containing 0.32 M sucrose (pH 7.4). The homogenates were centrifuged at 1,000 g for 10 min at 4°C. The resulting pellets were discarded, and the supernatants were centrifuged at 9,000 g for 15 min. The pellets were resuspended in 10 volumes of Tris HCl buffer containing 0.32 M sucrose (pH 7.4) and centrifuged at 13,000 g for 30 min, then resuspended in 10 volumes of Tris HCl buffer and centrifuged again at 13,000 g for 30 min. The final pellets were suspended in Tris HCl buffer and used in the binding assays. Protein concentrations were measured using the BCA Protein Assay Kit (ThermoFisher Scientific) according to the manufacturer’s instructions.
Then, samples were filtered through Filtermat A glass microfiber filters (pretreated with 0.2% polyethylenimine) using a Brandel cell harvester, and the radioactivities were measured at the indicated time points.

[3] = system: TSPO from the rat cerebral cortex; set-up: method as in Jin, 2014; details: previous competitive binding assay; ref Jin, 2014; cited from earlier work
[4] = biological target: T1, TSPO from rat cerebral cortex; experiment: 3H-PK11195 equilibrium binding in presence of koumine
Experimental: as §1
After incubation at 4°C for 2 h, the reaction was terminated by the addition of ice-cold 50 mM Tris HCl buffer (pH 7.4) followed by vacuum filtration through Filtermat A glass microfiber filters (pretreated with 0.2% polyethylenimine) using a Brandel cell harvester. The filters were washed rapidly, and radioactivity was determined by liquid scintillation spectrometry.

T1 sequence (P16257 whole entry): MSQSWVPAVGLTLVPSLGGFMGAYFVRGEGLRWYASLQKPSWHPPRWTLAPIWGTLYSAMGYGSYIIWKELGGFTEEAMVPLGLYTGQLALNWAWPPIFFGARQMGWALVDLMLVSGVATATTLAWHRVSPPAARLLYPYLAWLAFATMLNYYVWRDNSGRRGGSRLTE

## CN1C(=O)CN=C(c2ccc(Cl)cc2)c2cc(Cl)ccc21 [Ro5-4864, reference compound]
TSPO
  Kd: 7.3 ± 0.8 nM
[1]
  MWT: Neither Ro5-4864 nor koumine altered the MWT

## C=C[C@@]12CN(C)[C@H]3C[C@]14C(=Nc1ccccc14)[C@H]1C[C@@H]2[C@@H]3CO1 [koumine]
[2]; in presence of 10^−6 M koumine
  dissociation rate of 3H-PK11195 relative to vehicle group: 72%
[2]; in presence of 10^−10 M koumine
  dissociation rate of 3H-PK11195 relative to vehicle group: 81%
[3]
  effect on binding of 3H-PK11195 with TSPO: significantly increased the binding
[4]; 10^−10 M and 10^−6 M koumine only
  effect on binding of 0.1 nM 3H-PK11195: significantly increased the binding
[4]; all concentrations of koumine, 10^−12–10^−3 M, not dose dependent
  effect on binding of 0.1 nM 3H-PK11195: tended to increase the binding
[1]
  MWT: Neither Ro5-4864 nor koumine altered the MWT
[1]; koumine 0.28 mg/kg s.c. before Ro5-4864 i.p.
  modulation of antinociceptive effect of Ro5-4864 (MWT): could not significantly augment
